From patent US10647738B2, “Xylene-based amphiphilic compound and use thereof” (Industry-University Cooperation Foundation Hanyang …, priority 2016, dated 2020)
Where “and” joins values, the source holds several entries; their conditions need not be identical. Equal values may be shown once. Entries after “also recorded” stand apart in the source; their conditions may differ.

Key:
[1] = target: T1, human β2 adrenergic receptor (β2AR) (Homo sapiens, UniProt P07550); assay: mBBr-β2AR fluorescence spectrum after dilution to CMC or less; assay type: biochemical; conditions: diluted with NH buffer, 30 minutes
T1 construct: made in house
Protocol: An experiment for comparing changes in protein structures of XMAs and DDM at CMC or less of an amphiphilic molecule was carried out.
Specifically, 0.5 μl of an unliganded mBB-labeled receptor solubilized in 20×CMC P-XMA-C11 or P-XMA-C12 at 50 μM was diluted with 500 μl of a NH buffer (20 mM HEPES pH 7.5, 100 mM NaCl). The protein was incubated for 30 minutes, and the mBBr spectrum was measured. The receptor solubilized in 0.1% DDM was diluted with a NH buffer, and used as a control.

boron transporter (Bor1) = target: T2, boron transporter (Bor1) (Arabidopsis thaliana, UniProt Q8VYR7); assay: Bor1 structural stability in detergent solution, CPM assay; conditions: CMC+0.04 wt % and CMC+0.2 wt %; two hours at 40° C.
T2 construct: GFP-His (TEV-cleavable) (C, cleaved yes); made in house; host or cells: S. cerevisiae
Protocol: An experiment for measuring the structural stability of a boron transporter (Bor1) in an aqueous solution due to P-XMAs was performed. The Bor1 structural stability was measured using a CPM assay, and concentrations of P-XMAs and DDM were estimated by measuring relative amounts of folded proteins at CMC+0.04 wt % (a) and CMC+0.2 wt % (b) to analyze Bor1 protein stability according to the concentration of an amphiphilic molecule.
Specifically, Bor1 was expressed as a fusion protein with a C-terminal GFP-His tag in S. cerevisiae. All steps were carried out at 4° C. A Bor1-containing membrane was resuspended with PBS (pH 7.4), 100 mM NaCl, and 10% glycerol and solubilized in 1% DDM for 1 hour with gentle stirring, followed by ultracentrifugation at 200,000 g for 45 minutes. The supernatant was adjusted with 10 mM imidazole, and applied to two 5 ml Ni^2+-NTA columns pre-equilibrated with Buffer A (PBS (pH 7.4), 100 mM NaCl, 10% glycerol, 0.03% DDM) supplemented with 10 mM imidazole. The column was washed with 5 CV of Buffer A supplemented with 30 mM imidazole, and washed with 5 CV of Buffer A supplemented with 50 mM imidazole, followed by elution in Buffer A supplemented with 500 mM imidazole. […] A clear plate cover was added, and the fluorescence of each well was monitored at 40° C. for 120 minutes.

[2] = Hydrodynamic radius and size distribution of micelles by dynamic light scattering (DLS); assay type: physicochemical; conditions: for Rh (nm), hydrodynamic radius of micelles: 1.0 wt % stated for M-/O-XMAs (FIG. 37); for size distribution of micelles (number of micelle sets): FIGS. 36 and 37
Protocol: A method for measuring the radius of a micelle is not particularly limited, but a method well known in the art may be used, and for example, the measurement may be performed using a dynamic light scattering (DLS) experiment.
(§1) Specifically, the critical micellar concentration (CMC) was measured using fluorescence staining and diphenylhexatriene (DPH), and the hydrodynamic radii (Rh) of the micelles formed by agents were measured through a dynamic light scattering (DLS) experiment. The measured results are shown in Tables 1 and 2, compared with a conventional amphiphilic molecule (detergent), DDM.

[3] = target: T3, melibiose permease (MelB) (Salmonella typhimurium, UniProt P30878); assay: MelB extraction from membranes and thermostability, SDS-PAGE and western blotting; conditions: for MelB protein extraction efficiency / MelB protein extraction / maintained solubilization / MelB protein extraction: 1.5 wt % detergent, 90 minutes; for MelB protein extraction / maintained solubilization: 55° C.; for MelB protein extraction: 65° C.
T3 construct: made in house; host or cells: Salmonella typhimurium DW2 cells (ΔmelB and ΔlacZY) (so in the source); membrane preparation
Protocol: An experiment for measuring the structural stability of the Salmonella typhimurium melibiose permease (MelB) protein due to XMAs was performed. The MelB protein was extracted on a membrane using XMAs and DDM, and the amount and structure of the extracted protein were analyzed by SDS-PAGE and western blotting. A concentration of the used compound was 1.5 wt %, and the protein was extracted at a different temperature (0, 45, 55, or 65° C.) to evaluate two kinds of performance such as protein extraction efficiency and stabilization ability of the compound at the same time. Membrane samples that were not treated with XMAs or DDM were used as controls.
Specifically, MelBSt stability due to DDM and XMAs was evaluated according to the method described in the paper (P. S. Chae, et al., Nat. Methods 2010, 7, 1003-1008) written by the inventor in 2010. The protein (MelBSt) was produced using plasmid pK95ΔAHB/WT MelBSt/CH10 encoding wild-type MelB with a 10-His tag at the C-terminus and Salmonella typhimurium DW2 cells (ΔmelB and ΔlacZY). Cell growth and membrane preparation were carried out according to the method described in the paper (Nat. Commun. 2014, 5, 3009) written by A. S. Ethayathulla et al. A protein assay was performed using a Micro BCA kit (Thermo Scientific, Rockford, Ill.). To measure solubilization/stability, MelBSt-containing membrane samples (final protein concentration of 10 mg/mL) were incubated with a solubilization buffer (20 mM sodium phosphate, pH 7.5, 200 mM NaCl, 10% glycerol, 20 mM melibiose) and 1.5% (w/v) DDM, P-XMAs (P-XMA-C8, P-XMA-C9, P-XMA-C10, P-XMA-C11 and P-XMA-C12), M-XMAs (M-XMA-C11, M-XMA-C12, M-XMA-C14, M-XMA-C16 and M-XMA-C18) or O-XMAs (O-XMA-C11, O-XMA-C12, O-XMA-C14, O-XMA-C16 and O-XMA-C18) at four different temperatures (0, 45, 55 and 65° C.) for 90 minutes. Following ultracentrifugation at 355,590 g in a Beckman Optima™ MAX ultracentrifuge using a TLA-100 rotor for 45 minutes at 4° C., 20 μg proteins were separated by SDS-16% PAGE, and then immunoblotted with a Penta-His-HRP antibody (Qiagen, Germantown, Md.). MelBSt was detected using a SuperSignal West Pico chemiluminescent substrate by an ImageQuant LAS 4000 Biomolecular Imager (GE Health Care Life Sciences).

[4] = Critical micelle concentration by fluorescence staining with diphenylhexatriene (DPH); assay type: physicochemical; conditions: aqueous solution
Protocol: While a method for measuring CMC is not particularly limited, a method widely known in the art may be used, and the measurement may be performed by, for example, a fluorescence staining method using diphenylhexatriene (DPH).
as §1

[5] = target: T1, human β2 adrenergic receptor (β2AR); assay: [3H]-dihydroalprenolol radioligand binding of β2AR purified in detergent; conditions: 10 nM [3H]-DHA, 30 minutes, room temperature
Protocol: An activation degree of a receptor (mBBr-β2AR) purified by DDM or XMAs was measured by [^3H]-dihydroalprenolol ([^3H]-DHA) binding.
Specifically, a radioligand binding assay was performed by the following method. β2AR was purified in the presence of 0.1% DDM. After β2AR was reloaded into an M1 Flag column in the presence of 2 mM CaCl2, a DDM (0.1%)-XMA (0.2%) buffer mixture was prepared in a ratio of 50:50, 20:80, 10:90, 5:95 or 0:100. The receptor was eluted in 20×CMC XMA with 5 mM EDTA and 0.2 mg/ml of a free Flag peptide. 0.1 pmol purified β2AR solubilized in DDM, P-XMA-C11, P-XMA-C12, M-XMAs or O-XMAs was incubated with 10 nM of radioactive DHA [^3H]-dihydroalprenolol (DHA) for 30 minutes at room temperature. The mixture was loaded into a G-50 column, and a flow-through was collected with a binding buffer (20 mM HEPES pH 7.5, supplemented with 0.5 mg/ml BSA, 100 mM NaCl), and further filled with 15 ml of a scintillation fluid. Receptor-binding [^3H]DHA was measured with a scintillation counter (Beckman). Non-specific binding of [^3H]-DHA was calculated by adding 1 μM of alprenolol (Sigma) in the same binding reaction. The binding degree of [^3H]-DHA was measured as a column graph.

T1 sequence (P07550 whole entry): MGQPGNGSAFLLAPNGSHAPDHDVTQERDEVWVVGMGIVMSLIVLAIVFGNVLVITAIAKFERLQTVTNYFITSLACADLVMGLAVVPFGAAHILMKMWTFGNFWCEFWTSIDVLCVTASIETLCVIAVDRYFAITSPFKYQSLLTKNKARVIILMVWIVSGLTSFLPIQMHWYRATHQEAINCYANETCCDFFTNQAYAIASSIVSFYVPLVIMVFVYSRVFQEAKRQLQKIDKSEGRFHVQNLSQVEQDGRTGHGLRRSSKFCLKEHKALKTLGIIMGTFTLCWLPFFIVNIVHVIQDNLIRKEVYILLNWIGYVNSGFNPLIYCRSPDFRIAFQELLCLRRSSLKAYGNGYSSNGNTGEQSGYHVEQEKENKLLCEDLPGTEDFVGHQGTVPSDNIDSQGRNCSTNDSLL
T3 sequence (P30878 whole entry): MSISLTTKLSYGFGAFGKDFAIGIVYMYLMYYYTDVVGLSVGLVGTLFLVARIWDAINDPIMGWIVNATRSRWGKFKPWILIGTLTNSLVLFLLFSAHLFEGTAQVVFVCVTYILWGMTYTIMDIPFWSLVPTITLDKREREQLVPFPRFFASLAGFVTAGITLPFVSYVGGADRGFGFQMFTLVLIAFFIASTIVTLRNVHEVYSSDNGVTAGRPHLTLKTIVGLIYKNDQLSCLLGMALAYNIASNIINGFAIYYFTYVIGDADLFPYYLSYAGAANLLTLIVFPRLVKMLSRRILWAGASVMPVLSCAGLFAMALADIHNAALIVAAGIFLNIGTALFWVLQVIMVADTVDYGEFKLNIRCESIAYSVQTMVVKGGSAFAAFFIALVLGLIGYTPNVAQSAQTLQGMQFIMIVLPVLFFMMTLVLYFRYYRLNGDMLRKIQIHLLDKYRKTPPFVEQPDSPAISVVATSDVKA
T2 sequence (Q8VYR7 whole entry, species assumed): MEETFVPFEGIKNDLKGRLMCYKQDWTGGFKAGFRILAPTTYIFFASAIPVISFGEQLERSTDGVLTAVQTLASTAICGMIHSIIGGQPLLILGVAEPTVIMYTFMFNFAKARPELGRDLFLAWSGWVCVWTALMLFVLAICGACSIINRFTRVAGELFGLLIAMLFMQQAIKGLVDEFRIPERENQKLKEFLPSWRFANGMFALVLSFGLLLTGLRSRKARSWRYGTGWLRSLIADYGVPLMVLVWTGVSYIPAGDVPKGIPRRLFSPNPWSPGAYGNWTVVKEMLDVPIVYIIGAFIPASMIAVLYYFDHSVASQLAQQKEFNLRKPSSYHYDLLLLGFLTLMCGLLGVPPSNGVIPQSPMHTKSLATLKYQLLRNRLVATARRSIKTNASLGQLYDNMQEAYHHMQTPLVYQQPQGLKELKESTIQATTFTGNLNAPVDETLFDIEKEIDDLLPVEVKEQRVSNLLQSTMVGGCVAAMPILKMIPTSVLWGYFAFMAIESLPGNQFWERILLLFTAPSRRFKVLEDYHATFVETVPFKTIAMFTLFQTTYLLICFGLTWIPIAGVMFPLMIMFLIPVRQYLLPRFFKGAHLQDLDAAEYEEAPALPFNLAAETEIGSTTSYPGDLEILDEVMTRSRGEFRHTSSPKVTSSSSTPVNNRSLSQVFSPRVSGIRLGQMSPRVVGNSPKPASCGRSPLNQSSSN

SMILES | structural change of β2AR on dilution to CMC or less [1] | Bor1 structural stability (relative amount of folded protein) (boron transporter (Bor1)) | Rh (nm), hydrodynamic radius of micelles [2] | size distribution of micelles (number of micelle sets) [2] | MelB protein extraction efficiency ([3]; 0° C.) | MelB protein extraction efficiency ([3]; 45° C.) | MelB protein extraction / maintained solubilization [3] | MelB protein extraction [3] | CMC [4] [µM] | CMC (wt %) [4] [wt %] | [3H]-DHA binding degree of purified β2AR [5] | MelBSt stabilization ability compared with DDM ([3]; 1.5 wt % detergent, 0, 45, 55 and 65° C.)
CCCCCCCCCCCCO[C@@H]1O[C@H](CO)[C@@H](O[C@H]2O[C@H](CO)[C@@H](O)[C@H](O)[C@H]2O)[C@H](O)[C@H]1O [DDM, n-dodecyl-β-D-maltopyranoside, reference compound] | clear structural change due to dilution | most instable state | 3.4 nm and 3.4 ± 0.02 nm | one set of micelles | high protein extraction efficiency | high protein extraction efficiency | hardly observed; also recorded: failed to maintain the solubilization of MelB | did not extract the protein | ~170 | ~0.0087 | – | –
CCCCCCCCCCCCC(CO[C@@H]1OC(CO)[C@@H](O[C@H]2OC(CO)[C@@H](O)C(O)C2O)C(O)C1O)(CO[C@@H]1OC(CO)[C@@H](O[C@H]2OC(CO)[C@@H](O)C(O)C2O)C(O)C1O)Cc1ccc(CC(CCCCCCCCCCCC)(CO[C@@H]2OC(CO)[C@@H](O[C@H]3OC(CO)[C@@H](O)C(O)C3O)C(O)C2O)CO[C@@H]2OC(CO)[C@@H](O[C@H]3OC(CO)[C@@H](O)C(O)C3O)C(O)C2O)cc1 (some centres unmarked) [P-XMA-C12] | less structural change | – | 3.7 nm and 3.7 ± 0.01 nm | two sets of micelles having different radii | – | extraction efficiency at the same level as DDM | higher MelBSt extraction ability than DDM | extracted MelBSt | ~1 | ~0.0002 | radioactive-ligand binding degree similar to the receptor purified by DDM | higher MelBSt stabilization ability than DDM
